{"source": "patent US9050477B2", "about": "“Cosmetic compositions comprising oridonin and new cosmetic uses” (SEDERMA, priority 2009, dated 2015)", "key": {"chorioallantoic membrane": {"system": "chorioallantoic membrane", "experiment": "Anti-redness effect: Het-CAM method", "conditions": "5000 ppm aspirin (positive control); SDS irritant; irritant alone 10 +/− 1.63", "text": "b. Evaluation of the Anti-Redness Effect: Het-CAM Method The Het-CAM model is recommended as an alternative method for the evaluation of the irritant effect of cosmetics. The model uses eggs at a very early stage of development since the nervous system is not yet fully developed (JORF No. 300, Dec. 26, 1996). A moderately irritant product induces instantaneous changes in the capillary density of the chorioallantoic membrane. Previously invisible blood vessels become clearly visible under the effect of vasodilatation. This property was exploited to evaluate the effect of the combination of oridonin and darutoside. The combination oridonin+darutoside was applied to the surface of the chorioallantoic membrane and, after incubation, a surfactant, used as an SDS irritant agent, in an appropriate concentration, was applied to the surface of the membrane. A score was determined by an experienced operator and compared to that for the membranes exposed to the irritant alone (negative control) and that for the membranes exposed to aspirin, used as the positive control (JORF published method, modified)."}, "G3PDH": {"system": "G3PDH", "experiment": "Slimming: G3PDH activity in differentiating human preadipocytes", "type": "cell-based", "conditions": "for Act G3PDH: 10 days of differentiation, control 220.2 +/− 32.8; for Act G3PDH % Change: vs control", "protocol": "Human preadipocytes are cultured and induced to differentiate in the presence of oridonin. After 10 days of differentiation, G3PDH activity was measured in cell homogenates as a marker of differentiation. (n=4)."}, "[1]": {"experiment": "Oxygen-Radical Absorbance Capacity (ORAC) test", "type": "biochemical", "conditions": "n = 6, vs control", "text": "a. Reduction in Peroxyl Radicals: ORAC Test\nThe Oxygen-Radical Absorbance Capacity (ORAC) test is a method enabling evaluation of the antioxidant capability of molecules and extracts of plant origin. […] The free radical-induced […] of fluorescein decreases its fluorescence. The antioxidant molecules will reduce this degradation"}, "[2]": {"system": "reduced glutathione (GSH)", "experiment": "Stimulation of reduced glutathione (GSH) synthesis, ELISA", "type": "cell-based", "conditions": "human keratinocytes, 24 h", "protocol": "c. Stimulation of Reduced Glutathione (GSH) Synthesis\nHuman keratinocytes at confluence are exposed 24 h to tested products. Intracellular GSH concentration was determined by ELISA."}, "Human melanocytes": {"system": "Human melanocytes", "experiment": "Melanogenesis of human melanocytes in monolayer (melanin content)", "type": "cell-based", "conditions": "5 days, n=4", "protocol": "iii. Change in the Melanogenesis of Human Melanocytes in Monolayer\nHuman melanocytes were cultured and exposed with the test products for 5 days. After incubation the melanin content was measured in cell homogenates (n=4)."}}}
{"compound": "CC(=O)Oc1ccccc1C(=O)O", "note": "[aspirin]", "values": [{"measurement": "Mean score (inflammation index)", "setting": "chorioallantoic membrane", "value": "2 +/− 2.06"}]}
{"compound": "C=C1C(=O)[C@]23[C@H](O)[C@H]1CC[C@H]2[C@@]12CO[C@]3(O)[C@@H](O)[C@@H]1C(C)(C)CC[C@@H]2O", "note": "[oridonin]", "values": [{"measurement": "Act G3PDH", "setting": "G3PDH; oridonin 2.7 ppm", "value": "162.1 +/− 31.4 mU/10^6 cell"}, {"measurement": "Act G3PDH % Change", "setting": "G3PDH; oridonin 2.7 ppm", "value": "−26%; p < 0.05"}, {"measurement": "Act G3PDH", "setting": "G3PDH; oridonin 3.6 ppm", "value": "127.7 +/− 19.2 mU/10^6 cell"}, {"measurement": "Act G3PDH % Change", "setting": "G3PDH; oridonin 3.6 ppm", "value": "−42%; p < 0.01"}, {"measurement": "effect on the reduction of the destruction of fluorescein by free radicals", "setting": "[1]; oridonin 1.5 ppm", "value": "+14%; p < 0.01"}, {"measurement": "effect on the reduction of the destruction of fluorescein by free radicals", "setting": "[1]; oridonin 3 ppm", "value": "+4%; dns"}, {"measurement": "effect on the reduction of the destruction of fluorescein by free radicals", "setting": "[1]; oridonin 4.5 ppm", "value": "−4%; dns"}, {"measurement": "GSH change as % of control", "setting": "[2]; oridonin 3 ppm", "value": "+41%; p < 0.01"}, {"measurement": "GSH change as % of control", "setting": "[2]; oridonin 4.5 ppm", "value": "+79%; p < 0.01"}, {"measurement": "% Change/control (melanin content)", "setting": "Human melanocytes; oridonin alone, 2.25 ppm", "value": "−23%; p < 0.01"}, {"measurement": "% Change/control (melanin content)", "setting": "Human melanocytes; oridonin alone, 3 ppm", "value": "−34%; p < 0.01"}, {"measurement": "% Change/control (melanin content)", "setting": "Human melanocytes; oridonin alone, 5 ppm (so in the source)", "value": "−21%; p < 0.01"}, {"measurement": "% Change/control (melanin content)", "setting": "Human melanocytes; oridonin alone, 125 ppm (so in the source)", "value": "−16%; p < 0.01"}]}
{"compound": "darutoside", "values": [{"measurement": "GSH change as % of control", "setting": "[2]; darutoside 10 ppm", "value": "+3%; dns"}, {"measurement": "GSH change as % of control", "setting": "[2]; darutoside 15 ppm", "value": "+2%; dns"}, {"measurement": "% Change/control (melanin content)", "setting": "Human melanocytes; darutoside alone, 3.75 ppm", "value": "+1%; dns"}, {"measurement": "% Change/control (melanin content)", "setting": "Human melanocytes; darutoside alone, 5 ppm", "value": "+2%; dns"}, {"measurement": "% Change/control (melanin content)", "setting": "Human melanocytes; darutoside alone, 7.5 ppm", "value": "−4%; dns"}, {"measurement": "% Change/control (melanin content)", "setting": "Human melanocytes; darutoside alone, 10 ppm", "value": "−7%; p < 0.05"}]}
